The results in this text go back to ChEMBL document CHEMBL1142674, “Amino acid ester prodrugs of the antiviral agent 2-bromo-5,6-dichloro-1-(beta-D-ribofuranosyl)benzimidazole as potential substrates of hPEPT1 transporter” (J Med Chem, 2005).

Common to all, as to assay type: cell-based
Assay [1] has as its target T1, Solute carrier family 15 member 1 (Homo sapiens) (UniProt P46059).
T1 sequence (whole entry): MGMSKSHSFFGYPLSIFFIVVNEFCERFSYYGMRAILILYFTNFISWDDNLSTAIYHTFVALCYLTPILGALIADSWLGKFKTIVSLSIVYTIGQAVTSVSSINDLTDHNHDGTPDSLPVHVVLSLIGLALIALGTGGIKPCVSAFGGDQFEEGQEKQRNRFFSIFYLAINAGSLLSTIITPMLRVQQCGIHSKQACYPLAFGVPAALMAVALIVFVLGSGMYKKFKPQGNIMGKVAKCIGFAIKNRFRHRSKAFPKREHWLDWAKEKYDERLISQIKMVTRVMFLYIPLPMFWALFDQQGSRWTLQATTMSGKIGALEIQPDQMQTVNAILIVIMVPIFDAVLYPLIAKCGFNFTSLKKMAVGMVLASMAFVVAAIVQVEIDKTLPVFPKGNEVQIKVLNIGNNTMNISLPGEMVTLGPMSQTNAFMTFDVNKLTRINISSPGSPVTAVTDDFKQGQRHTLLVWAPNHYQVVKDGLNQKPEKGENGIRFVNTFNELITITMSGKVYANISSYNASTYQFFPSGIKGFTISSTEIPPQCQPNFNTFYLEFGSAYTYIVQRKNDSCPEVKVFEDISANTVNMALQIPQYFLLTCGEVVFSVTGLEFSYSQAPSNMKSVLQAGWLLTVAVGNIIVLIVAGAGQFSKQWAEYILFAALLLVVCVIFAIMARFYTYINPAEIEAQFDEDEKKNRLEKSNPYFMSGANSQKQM
In words: Relative inhibition of [3H]glycylsarcosine uptake in HeLa cells expressing human Intestinal peptide transporter PepT1 compared to BDCRB.

The target in assay [2] is T2, Solute carrier family 15 member 1 (Homo sapiens, UniProt P46059).
T2 sequence (P46059 whole entry): T1 sequence (whole entry)
The assay can be described thus: Inhibitory concentration against [3H]glycylsarcosine uptake in HeLa cells expressing human Intestinal peptide transporter PepT1.

For assay [3], the target named is T1, Solute carrier family 15 member 1 (Homo sapiens). The assay can be described thus: Relative inhibition of [3H]glycylsarcosine uptake in HeLa cells expressing human Intestinal peptide transporter PepT1 compared to BDCRB; na=Not applicable.

Activity calls are given as the source filed them. No cut-off for these calls is given here.

In the case of `CCOc1ccc(C[C@H](N)C(=O)OC[C@H]2OC(n3c(Br)nc4cc(Cl)c(Cl)cc43)[C@H](O)[C@@H]2O)cc1` (stereo partly drawn), the Ratio in assay [1] came to 4.7. Further, the midpoint of inhibition in assay [2], the IC50, lay at 96 µM.

For `CC(C)[C@H](N)C(=O)OCCOCn1cnc2c(=O)[nH]c(N)nc21` [VALACYCLOVIR], the IC50 in assay [2] was determined as 431 µM.

Turning to `NCCCC[C@H](N)C(=O)OC[C@H]1OC(n2c(Br)nc3cc(Cl)c(Cl)cc32)[C@H](O)[C@@H]1O` (stereo partly drawn), in assay [1], the Ratio turned out to be 0.9. This compound had an IC50 in assay [2] of 477 µM.

Regarding `O=C(OC[C@H]1OC(n2c(Br)nc3cc(Cl)c(Cl)cc32)[C@H](O)[C@@H]1O)[C@@H]1CCCN1` (stereo partly drawn), the Ratio in assay [1] came to 0.8. The compound also registered an IC50 in assay [2] of 537 µM.

As to `N[C@H](Cc1ccccc1)C(=O)OC[C@H]1OC(n2c(Br)nc3cc(Cl)c(Cl)cc32)[C@H](O)[C@@H]1O` (stereo partly drawn), in assay [1], the Ratio was determined as 1.6. In assay [2], 282 µM corresponded to half-maximal inhibition (IC50).

Turning to `N[C@@H](Cc1ccccc1)C(=O)OC[C@H]1OC(n2c(Br)nc3cc(Cl)c(Cl)cc32)[C@H](O)[C@@H]1O` (stereo partly drawn), the Ratio in assay [1] came out at 2.1. The same compound registered an IC50 in assay [2] of 218 µM.

On to `OC[C@H]1O[C@H](n2c(Br)nc3cc(Cl)c(Cl)cc32)[C@@H](O)[C@H]1O`, for which the Ratio entry in assay [3] is “inactive”. Also, the IC50 in assay [2] is 447 µM.

`N[C@@H](CC(=O)O)C(=O)OC[C@H]1OC(n2c(Br)nc3cc(Cl)c(Cl)cc32)[C@H](O)[C@@H]1O` (stereo partly drawn): the Ratio in assay [1] stood at 1.7. Also, in assay [2], the IC50 was determined as 260 µM.

As for `CC(C)[C@@H](N)C(=O)OC[C@H]1OC(n2c(Br)nc3cc(Cl)c(Cl)cc32)[C@H](O)[C@@H]1O` (stereo partly drawn), in assay [1], the Ratio came to 1.3. The IC50 in assay [2] stood at 342 µM.

As to `CCC(C)[C@H](N)C(=O)OC[C@H]1O[C@@H](n2c(Br)nc3cc(Cl)c(Cl)cc32)[C@H](O)[C@@H]1O` (stereo partly drawn), in assay [1], the Ratio is 3.7. This compound also returned an IC50 in assay [2] of 121 µM.

With `COc1ccc(C[C@H](N)C(=O)OC[C@H]2OC(n3c(Br)nc4cc(Cl)c(Cl)cc43)[C@H](O)[C@@H]2O)cc1` (stereo partly drawn), in assay [1], the Ratio stood at 1.5. Besides, in assay [2], the IC50 was 300 µM.

Take `N[C@@H](Cc1ccc(Cl)cc1)C(=O)OC[C@H]1OC(n2c(Br)nc3cc(Cl)c(Cl)cc32)[C@H](O)[C@@H]1O` (stereo partly drawn): the Ratio in assay [1] worked out at 3.1. Further, inhibition in assay [2] was half-maximal at 142 µM (IC50).

As to `CC(C)[C@H](N)C(=O)OC[C@H]1OC(n2c(Br)nc3cc(Cl)c(Cl)cc32)[C@H](O)[C@@H]1O` (stereo partly drawn), the Ratio in assay [1] turned out to be 2.7. This compound had an IC50 in assay [2] of 166 µM.

Take `CC(C)[C@H](N)C(=O)OCCOCn1cnc2c(=O)nc(N)[nH]c21`: the Ratio entry in assay [3] was “inactive”.

In the case of `N[C@H](CC(=O)O)C(=O)OC[C@H]1OC(n2c(Br)nc3cc(Cl)c(Cl)cc32)[C@H](O)[C@@H]1O` (stereo partly drawn), the Ratio in assay [1] worked out at 1.1. Moreover, the IC50 in assay [2] turned out to be 421 µM.
